Source: patent US20090098219A1, “Cosmetic/pharmaceutical compositions comprising retinoids and anti-irritants and treatment of keratinization disorders therewith” (GALDERMA RESEARCH & DEVELOPMENT, priority 2005, published 2009)
Entries after “also recorded” stand apart in the source; their conditions may differ.

Experiments:
ear of the BALB/c mouse = assay: Tolerance study: anti-irritant in preventive treatment before topical Differin gel, ear thickness (edema); assay type: in vivo; conditions: for effect of the anti-irritant on the irritation caused by Differin gel (in words): anti-irritant applied before Differin gel; for % AUC inhibition vs Differin (reduction of edema/irritation due to Differin gel): anti-irritant solution followed by Differin gel, D1-D6, AUC D2-D19
Procedure: The anti-irritants used are formulated, unless otherwise indicated, in an ethanol/water (50:50) vehicle at the concentrations shown in the table below.
The goal of the present study is to compare the irritant power of a reference gel, comprising 0.1% adapalene, when this treatment is preceded or not preceded by treatment with an anti-irritant.
The treatment consists of a daily topical application (20 μl) of anti-irritant, formulated in an aqueous/alcoholic vehicle (50% ethanol and 50% water by volume), on the internal face of the right ear of BALB/c mice divided into 15 groups (female mice approximately 9 weeks old), followed by a topical application (20 μl) of Differin® gel (reference gel comprising 0.1% adapalene) at the rate of one application of each formulation per day for 6 days.
Evaluation is carried out by measurements of the thickness of the ear by means of the Oditest and by clinical observation of the animals from the 2nd to 19th day.

[1] = tested on: comedones on the back of the Rhino mouse; assay: Comedolytic activity of Differin gel alone or preceded by an anti-irritant on the Rhino mouse; assay type: in vivo; conditions: split treatment, 18 days
Description: The goal of the present study is to compare the comedolytic activity of Differin® gel (reference gel comprising 0.1% adapalene) whether this treatment is preceded or not preceded by a treatment with an anti-irritant.

Row | Compound | effect of the anti-irritant on the irritation caused by Differin gel (in words) (ear of the BALB/c mouse) | effect on the comedolytic activity of Differin gel (in words) [1] | % AUC inhibition vs Differin (reduction of edema/irritation due to Differin gel) (ear of the BALB/c mouse)
1 | O=C(O)CN(CCN(CC(=O)O)CC(=O)O)CC(=O)O [EDTA] | effective in reducing the irritation |  | 
2 | NC(=O)NC1NC(=O)NC1=O (stereo not drawn) [allantoin, Allantoin] | effective in reducing the irritation | does not reduce the comedolytic activity | 
3 | CC1(C)[C@@H](O)CC[C@]2(C)[C@H]3C(=O)C=C4[C@@H]5C[C@@](C)(C(=O)O)CC[C@]5(C)CC[C@@]4(C)[C@]3(C)CC[C@@H]12 [enoxolone, Enoxolone, reference compound] | virtually no effect; also recorded: do not have an effect |  | 
4 | O.O.O.O.O.O.[Cl-].[Cl-].[Sr+2] [strontium chloride hexahydrate, Strontium chloride hexahydrate] | effective in reducing the irritation |  | 
5 | O=[N+]([O-])[O-].O=[N+]([O-])[O-].[Sr+2] [strontium nitrate, Strontium nitrate] | effective in reducing the irritation | does not reduce the comedolytic activity | 
6 | O=S(=O)([O-])[O-].[Zn+2] [zinc sulfate, Zinc sulfate] | a reduction in the irritation; also recorded: effective in reducing the irritation |  | 25%
7 | Potassium disodium salt of β-glycyrrhizic acid [reference compound] | virtually no effect; also recorded: do not have an effect |  | 
8 | Sodium choleate | slightly reduces; also recorded: effective in reducing the irritation |  | 9%
